Consider 4 compounds from article PMC6332026, “Synthesis and Pharmacochemistry of New Pleiotropic Pyrrolyl Derivatives” (Molecules, 2015).

The test system of experiment [1] is carrageenan-induced rat paw edema. Details: method as in PMID 7714750. Particulars: dose 0.44 mmol/kg; cited from earlier work.
The target of the next experiment is T1, trypsin (Bos taurus, UniProt P00760).
T1 construct: purchased Sigma Chemical, Co. (St. Louis, MO, USA); host or cells: bovine pancreas
T1 sequence (P00760 24-246): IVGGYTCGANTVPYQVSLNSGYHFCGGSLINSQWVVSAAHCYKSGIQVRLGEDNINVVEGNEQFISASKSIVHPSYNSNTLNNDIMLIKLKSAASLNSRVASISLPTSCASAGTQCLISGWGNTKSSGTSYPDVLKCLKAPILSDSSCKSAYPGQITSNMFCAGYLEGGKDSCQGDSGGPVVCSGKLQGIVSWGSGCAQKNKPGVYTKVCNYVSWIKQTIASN
The experiment in a line: Inhibition of the proteolytic activity of trypsin. The following applies: bovine albumin substrate, pH 7.6; read-out: TP IC50 (inhibition of trypsin). The class given is biochemical. From the text:
Trypsin is an enzyme with an active role in inflammation. Thus, we studied the anti-proteolytic ability of the pyrrole derivatives, using salicylic acid as a reference compound. […] Comparing Compounds 2iv and 2v, the insertion of an electron-acceptor substituent (Cl) on the phenyl ring (substituent Ar^2) and the simultaneous increase of the volume of substituent Ar^2 (expressed as molar refractivity) led to an enhancement of the anti-proteolytic activity.
Carrageenan, type K, was commercially available. Cycloxygenase-2 (COX-2) and interleukin-6 (IL-6) EIA Kit, Item No. 583371 were purchased from Cayman. Trolox was obtained from Aldrich Chemical Co. (Milwaukee, WI, USA). All starting materials were obtained from commercial sources, and they were used without further purification.
The tested compounds (concentrations varying from 10 μΜ–100 μΜ in DMSO) were dissolved in a phosphate buffer (0.1 M K2HPO4–NaH2PO4·2H2O, pH = 7.6), and 0.2 mL of trypsin 0.075 mg/mL were added. The mixture was incubated at room temperature for 20 min, and then, 1 mL of bovine albumin (6 g/100 mL) was added. The mixture was incubated at 37 °C for 30 min. The reaction was stopped with the addition of 1 mL of trichloroacetic acid (5% w/w) Separation of the phases followed, with measurement of the supernatants at 280 nm at room temperature. IC50 values were determined.

Experiment [2] is described as follows: Interaction with the stable free radical DPPH (reducing activity). Particulars: DPPH 50 μM. As for the experimental part: 2,2-Diphenyl-1-picrylhydrazyl (DPPH) is a lipophilic, free, stable radical, which absorbs at 517 nm (violet color). Upon reduction, decolorization is observed that is stoichiometric to the number of received electrons and is representative of the antioxidant ability of compounds. […] This interaction, which indicates their radical scavenging ability in an iron-free system, was measured at 100 and 1000 μM after 20 and 60 min, whereas the final concentration of DPPH was stable at 50 μΜ.
[…] The absorbance was measured at 517 nm after 20 and 60 min at room temperature.

The next experiment addresses T2, soybean lipoxygenase (Glycine max, UniProt P08170).
T2 construct: purchased Sigma Chemical, Co. (St. Louis, MO, USA)
T2 sequence (P08170 1-839): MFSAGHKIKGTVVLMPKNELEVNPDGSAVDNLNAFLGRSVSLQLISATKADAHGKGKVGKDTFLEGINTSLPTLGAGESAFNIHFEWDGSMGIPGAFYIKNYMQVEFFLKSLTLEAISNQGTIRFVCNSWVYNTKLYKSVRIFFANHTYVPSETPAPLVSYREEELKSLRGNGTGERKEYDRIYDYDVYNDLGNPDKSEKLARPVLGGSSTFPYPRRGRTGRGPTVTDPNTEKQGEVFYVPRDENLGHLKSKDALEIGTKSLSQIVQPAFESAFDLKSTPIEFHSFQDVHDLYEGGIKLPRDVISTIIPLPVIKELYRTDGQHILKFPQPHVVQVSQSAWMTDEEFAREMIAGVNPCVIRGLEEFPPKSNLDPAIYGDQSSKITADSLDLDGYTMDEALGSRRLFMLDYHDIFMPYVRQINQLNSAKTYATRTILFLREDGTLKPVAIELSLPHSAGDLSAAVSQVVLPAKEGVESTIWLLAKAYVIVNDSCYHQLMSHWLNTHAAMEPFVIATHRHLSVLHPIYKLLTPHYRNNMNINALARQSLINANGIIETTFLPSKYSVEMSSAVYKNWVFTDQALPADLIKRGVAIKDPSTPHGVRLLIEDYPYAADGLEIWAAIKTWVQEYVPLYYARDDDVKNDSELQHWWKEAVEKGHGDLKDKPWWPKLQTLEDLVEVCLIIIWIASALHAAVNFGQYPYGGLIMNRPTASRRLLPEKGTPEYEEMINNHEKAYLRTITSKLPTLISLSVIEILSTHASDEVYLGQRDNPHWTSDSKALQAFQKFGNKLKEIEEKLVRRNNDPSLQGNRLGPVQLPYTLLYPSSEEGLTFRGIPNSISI
In words: Inhibition of soybean lipoxygenase (UV absorbance-based enzyme assay). In kind it is biochemical. Particulars: pH 9.00, read-out: LOX IC50. The procedure: Lipoxygenase catalyzes the first two steps in the metabolism of arachidonic acid to leukotrienes. LTB4 generation is important in the pathogenesis of neutrophil-mediated inflammatory diseases with a marked relation to the severity of cardiovascular diseases, asthma and cancer. We evaluated the synthesized pyrroles for their ability to inhibit soybean LOX by the UV absorbance-based enzyme assay. […] The inhibition of COX-2, as a peroxidase, was determined by a colorimetric assay with the oxidation of N,N,N′,N′-tetramethyl-p-phenylenediamine (TMPD).
The tested compounds were dissolved in DMSO, and the final concentration was 100 μΜ. The compounds were incubated at room temperature with sodium linoleate as a substrate (0.1 mL) in a buffer solution of Tris:HCl (pH 9.00) and 0.2 mL of a solution of soybean lipoxygenase.

Experiment [3] concerns carrageenan-induced rat paw edema. In words: Inhibition of rat paw edema induced by carrageenan. The following applies: Rattus norvegicus, ip; 0.01 mmol/kg body weight, intraperitoneally, 3.5 h; read-out: CPE % inhibition of rat paw edema induced by carrageenan. In kind it is in vivo, Fischer 344 rats. The procedure: The pyrrolyl derivatives, as well as their precursor chalcones were tested in vivo for the inhibition of rat paw edema induced by carrageenan. […] […]. For Compounds 2i, 2iii, 2iv and 2v, we determined their ED50 values. […]. The finding supports the primary idea of this design.
Edema was induced in the right hind paw of Fischer 344 rats (150–200 g). In the study, both males and females were included, with the exemption of pregnant females. The animals, which have been bred in our laboratory, were housed under standard conditions and received a diet of commercial food pellets and water ad libitum during maintenance. One hour before the onset of the experiment, food and water were removed. The tested compounds (dose 0.01 mmol/kg body weight) were diluted in water with a few drops of Tween 80, and they were administered intraperitoneally simultaneously with the intradermal injection of 0.1 mL 2% of carrageenan in water. The animals were euthanatized 3.5 h after the carrageenan administration. The difference between the weight of injected and uninjected paws was calculated for each animal and was compared to control animals, which were treated with water. Indomethacin was used as a reference compound in 0.01 mmol/kg. The results were expressed as the percent inhibition of the edema (CPE %).

With `O=C(c1ccccc1)c1ccc[nH]1` [2-benzoylpyrrole], the “inhibition of carrageenan-induced rat paw edema” value in experiment [1] was 34%.
Take `O=C(c1ccccc1)c1cc[nH]c1` [3-benzoylpyrrole]: the “inhibition of carrageenan-induced rat paw edema” value in experiment [1] is listed as 43%.
Consider `O=C(O)c1ccccc1O` [Salicylic acid, reference compound], for which, at trypsin, the IC50 was determined as 100 µM.
`Cc1ccc(C(=O)c2ccc(CC(=O)O)n2C)cc1` [Tolmetin, reference compound]: the “RA % (interaction with DPPH)” value amounted to 3% in experiment [2] (100 μM compound, 20 min); 3% in experiment [2] (100 μM compound, 60 min); 4% in experiment [2] (1000 μM compound, 20 min); 9% in experiment [2] (1000 μM compound, 60 min). For the same compound, the IC50 at soybean lipoxygenase was 190 µM. Further, the inhibition in vivo at 10 µmol/kg in experiment [3] stood at 76%.
